Experiments:
[1] = test system: most sensitive marine species (typically Skeletonema); assay: Toxicity to the most sensitive marine species (EC50); details: environmental profile of dispersion system components
Excerpt: (§1) With this in mind, it was desired to create an environmentally friendly oil phase system useful for making inverse emulsion polymers. The adopted definition of environmentally friendly are the rules that govern offshore chemical use in the North Sea. The environmental impact of a chemical is defined by three tests: bioaccumulation, biodegradation and toxicity. In order for a chemical to be used without restriction offshore in the North Sea it must satisfy two of the following three criteria: • 1. Biodegradation must be greater than 60%, if less than 20% it is automatically marked for substitution. • 2. Bioaccumulation as measured by octanol/water partitioning coefficient (log Po/w) must be below 3 (or have a molecular weight>700). • 3. Toxicity to the most sensitive marine species (typically Skeletonema) must be greater than LC50 or EC50 of 10 ppm.

[2] = Bioaccumulation as octanol/water partitioning coefficient (log Po/w); format: physicochemical
Excerpt: as §1

[3] = Excerpt: as §1, with “ppm. […]” for “ppm.”
An embodiment of the present invention is an environmentally friendly oil phase system comprising an organic solvent and lecithin. The immiscible organic solvent can be a hydrocarbon solvent that is aliphatic or at least one oil derived from one or more natural products, and are at least 60% biodegradable after 28 days as determined by the Organization for Economic Cooperation and Development, Procedure OECD 306, its text incorporated by reference. […]

[4] = cited from earlier work

| Substance | Toxicity EC50 [1] [ppm] | Bioaccumulation log Po/w [2] | Biodegradation, t = 28 days [3] | log P [4] |
| --- | --- | --- | --- | --- |
| POE(4)-sorbitan monostearate | 165 | <3 | 27 |  |
| POE(5)-sorbitan monooleate | 20 | <3 | 52 |  |
| sorbitan monooleate |  |  |  | > 3 |
